± gives the expanded uncertainty stated by the source.
Assays:
[1] = for thermal conductivity: 101.33 kPa
[2] = Molar enthalpy of transition or fusion; conditions: Crystal; DSC

CCCCCCCCCCCC(=O)O [dodecanoic acid]
[1]
Conditions | Normal melting temperature [°C] | thermal conductivity [W/m/K]
303.15 K, Crystal | – | 0.216 ± 0.016
308.15 K, Crystal | – | 0.218 ± 0.016
313.15 K, Crystal | – | 0.208 ± 0.015
323.15 K, Liquid | – | 0.14 ± 0.01
333.15 K, Liquid | – | 0.14 ± 0.01
Crystal, DTA | 42.80 ± 5 | –

Conditions | Molar enthalpy of transition or fusion [kcal/mol]
[2] | 7.56 ± 0.621
